# What was measured:
# Assay type in all cases: in vivo
# [1] = system: Akt; assay: Akt inhibitor treatment of B16-bearing mice, PGC1α levels and mitochondrial mass of CD8^+ T cells; details: short-term treatment (72 h)
# Description: FIGS. 11A-11H. Intratumoral T cell mitochondrial biogenesis is repressed by chronic Akt-mediated repression of PGC1α (A) Flow cytogram (left) and tabulated data (right) of PGC1α intracellular staining in CD8^+ T cells isolated from nondraining or draining LNs or TIL preparations from B16 or MC38 bearing mice. Shaded histogram indicates isotype control. (B) Flow cytogram of PGC1α expression in CTV-labeled, naïve OT-I T cells adoptively transferred into B16^OVA bearing mice for 72 h. Tabulation for multiple experiments is to the right. (C) Flow cytogram of cytokine production of congenically mismitached WT OT-I T cells transferred into B16^OVA-bearing or VV^OVA-infected mice for 96 h, then restimulated with SIINFEKL peptide. (D) Representative and tabulated phospho-Akt (S473) and phospho-Foxo1 (T24)/3a(T32) staining of the indicated cell populations in mice bearing 14-day B16 tumors. MFI is reported. (E) Representative flow cytogram and tabulated data indicating PGC1α staining in pAkt low or high cells. (F) MFI of pAkt staining in naïve OT-I T cells, or OT-I T cells transferred for 3 or 6 days into a B16^OVA-bearing or VV^OVA infected mouse. […] Results are representative of 5 (A,B, D) 3 (C, E, G, H) or 2 (F) independent experiments. *, p<0.05, **p<0.01, ***p<0.001 by unpaired t-test (A, F, G, H) or paired t-test (D, E, G, H). ***p<0.001 by two-way ANOVA. Error bars indicate s.e.m. […]
# [2] = system: tumor infiltrating T cells; assay: m-divi-1 treatment of tumor-bearing mice after OT-I adoptive transfer, mitochondrial staining; details: tumor-bearing mice treated 24 h after adoptive transfer
# Description: FIGS. 5A-5E. T cell mitochondrial dysfunction is induced upon entry into the tumor microenvironment. (A) Representative flow cytogram and tabulated data of LN and TIL of naïve, CTV-labeled, OT-I (Thy 1.1^+) CD8^+ T cells transferred into B16^OVA-bearing mice (5-7 mm tumors), or the spleens of the same progenitor cells transferred into B6 mice infected with 1×10^6 PFU VV^OVA for 72 h. Cells were stained with MitoTracker Deep Red FM. (B) As in A, but with the mitochondrial membrane potential dye TMRE. (C) As in A, but with the cellular ROS indicator DCFDA. (D) As in A, but cells were permeabilized and stained intracellularly for LC3B. (E) Representative data from experiments as in A, but some mice received mitophagy inhibitor m-divi-1. Results represent the mean of three or four independent experiments, with n=7-9 mice per group. **p<0.01, ***p<0.001, ***p<0.0001 by two-way ANOVA. Error bars indicate s.e.m.
# Single-cell metabolic capacity was assayed by flow cytometry. Specifically, 2-NBD-glucose (Cayman Chemical) and MitoTracker FM dyes (ThermoFisher) were utilized to assay the propensity of cells to take up glucose or generate intermediates via their mitochondria. […]
# As mitochondrial depolarization can lead to autophagy, it was determined whether mitophagy may be mediating the loss of mitochondria in tumor-infiltrating T cells.
# [3] = system: tumor-infiltrating Treg cells; assay: Treg depletion with diphtheria toxin in B16-bearing Foxp3^DTR.GFP mice; details: 3 days diphtheria toxin
molecule,measurement,setting,value
"O=c1[nH]c2ccccc2n1C1CCN(Cc2ccc(-c3nc4cc5[nH]cnc5cc4nc3-c3ccccc3)cc2)CC1 [Akt inhibitor, Akt inhibitor VIII]",PGC1α and mitochondrial sufficiency (metabolically suppressive phenotype),[1],partial rescue of the metabolically suppressive phenotype
COc1cc(-n2c(=S)[nH]c3ccccc3c2=O)c(Cl)cc1Cl [m-divi-1],mitochondrial staining in tumor infiltrating T cells,[2],failed to improve mitochondrial staining
diphtheria toxin,CD8^+ T cell MitoTracker FM staining,[3],no significant increases in CD8^+ T cell MitoTracker FM staining
same,depletion of tumor-infiltrating Treg cells,[3],near complete depletion of tumor-infiltrating Treg cells

# From US11583555B2, “Genetic re-engineering of immune cells to improve metabolic fitness for immunotherapy” (University of Pittsburgh—Of the Commonwealth System of …, priority 2016, dated 2023)
